These results are taken from ChEMBL document CHEMBL1148416, “2-Alkylsulfanyl estrogen derivatives: synthesis of a novel class of multi-targeted anti-tumour agents” (Bioorg Med Chem Lett, 2004).

This assay relates to MCF7. The experiment in a line: Anti-proliferative activity against MCF-7 human breast cancer cells was determined by using MCF-7 plate assay. Type of assay: functional, cell-based.

For the compound `CSc1cc2c(cc1O)CC[C@@H]1[C@@H]2CC[C@]2(C)[C@@H](O)CC[C@@H]12`, it took 3.96 µM to reach half-maximal inhibition (IC50).

Take `CSc1cc2c(cc1OS(N)(=O)=O)CC[C@@H]1[C@@H]2CC[C@]2(C)[C@@H](O)CC[C@@H]12`: the IC50 – broadly, the concentration that inhibits the measured activity by half – stood at 0.43 µM.

Compound `CCSc1cc2c(cc1OS(N)(=O)=O)CC[C@@H]1[C@@H]2CC[C@]2(C)[C@@H](O)CC[C@@H]12` yielded an IC50 of 35.3 µM.

As for `CSc1cc2c(cc1OS(N)(=O)=O)CCC1[C@@H]2CC[C@]2(C)C(=O)CC[C@@H]12` (single isomer, unassigned), the IC50 is 0.4 µM.

For the compound `CSc1cc2c(cc1O)CCC1[C@@H]2CC[C@]2(C)C(=O)CC[C@@H]12` (single isomer, unassigned), the half-inhibitory concentration (IC50) came out at 33.4 µM.

The compound `CCSc1cc2c(cc1O)CCC1[C@@H]2CC[C@]2(C)C(=O)CC[C@@H]12` (single isomer, unassigned) returned an IC50 of 31.9 µM.

In the case of `C[C@]12CC[C@@H]3c4ccc(OS(N)(=O)=O)cc4CCC3[C@@H]1CCC2=O` (single isomer, unassigned) [EMATE], the IC50 came out at 22.8 µM.

Regarding `COc1cc2c(cc1O)CC[C@@H]1[C@@H]2CC[C@]2(C)[C@@H](O)CC[C@@H]12` [2-METHOXYESTRADIOL], the IC50 turned out to be 2.39 µM.
